Data as given in patent US20230000753A1, “Encapsulated Cleansing Composition” (Henkel AG & Co. KGaA, priority 2020, published 2023).

System: skin
Assay: 5 day cumulative irritation patch study
Format: in vivo
Description: To evaluate the skin irritation potential of cleansing products, a 5 day cumulative irritation patch study was conducted. Cumulative irritancy patch testing is a modified primary irritancy patch test that can detect weak irritants that require multiple applications to cause a skin reaction. These reactions are due to direct damage to the epidermal cells and no immunologic (allergic) mechanism is involved. The procedure used in the Examples is a modification of that described by Dr. B. M. Lanman at the Joint Conference on Cosmetic Sciences, Apr.

CCCCCCCCCCCCOS(=O)(=O)[O-].[Na+] [0.25% SLS, sodium lauryl sulfate]
Irritancy Class: Moderately
Normalized Total Score: 290.2
